Data reported in patent publication US7977107B2, “Oral detection test for cannabinoid use” (LabOne, Inc., priority 2004, dated 2011).

Experiments:
[1] = Detection of THCA in oral fluid samples of test subjects by GC/MS/MS; type: in vivo, human; conditions: Group C: 26 samples screened and confirmed positive for Δ^9-THC
Description: Oral fluid samples from 223 test subjects were collected with a commercially available INTERCEPT® oral fluid collection device manufactured by OraSure Technologies, Inc. (Bethlehem, Pa.) in accordance with the manufacturer's instructions. This device comprises an absorbent collection pad (e.g., cotton or a sponge) affixed to the end of a handle. The collection pad of the collection device is placed in the mouth of the subject until the collection pad is substantially saturated with oral fluid, which typically takes about four minutes.
The oral fluid samples were obtained from two drug testing facilities. The samples were divided into three groups: negative screens (A), positive screens (B), and positive confirms (C). Group A consisted of 144 oral fluid samples that had been tested by ELISA for the parent compound Δ^9-THC and were negative for this test (cutoff 4.0 ng/ml Δ^9-THC, cross reactive with THCA at 0.33 ng/ml, no confirmation with GC/MS/MS performed). […] Finally, Group C consisted of 26 oral fluid samples that screened positive by ELISA for the parent compound Δ^9-THC and were also confirmed positive for Δ^9-THC by GC/MS/MS. Each of these samples from Group A, B, and C was then tested for the presence or absence of THCA by GC/MS/MS in accordance with the present invention. […]
Quantitation was performed using the internal standard area of the 495-peak ratio with the 492-peak. […]

[2] = Δ^9-THC metabolism in oral fluid (incubation at about 37° C., THCA assayed versus time); type: in vitro ADME; conditions: 10 ng/ml Δ^9-THC in certified negative oral fluid, several hours, triplicate
Procedure: In this example, Δ^9-THC metabolism in oral fluid was investigated. Δ^9-THC was incubated at about 37° C. in oral fluid for several hours. THCA levels were assayed versus time to ensure metabolism of Δ^9-THC to THCA or THCA-glucuronide in the oral cavity or mucosa was not a possible source of the measured result. This was performed in triplicate at 10 ng/ml using certified negative oral fluid samples. Δ^9-THC standard material of known purity was used.
Δ^9-THC metabolism to THCA was not detected during this experiment. Further, it has been reported that Δ^9-THC metabolism occurs in the liver. See Watanabe, et al., A cytochrome P450 isozyme having aldehyde oxygenase activity plays a major role in metabolizing cannabinoids by mouse hepatic microsomes, Biochem Pharmacol., Vol. 46 No. 3, at pp. 405-11 (August 1993).

Row | Compound | THCA level in oral fluid (highest) [1] | Δ^9-THC metabolism to THCA [2]
1 | 11-nor-Δ^9-THC carboxylic acid [THCA] | ≤ 142 pg/mL | –
2 | CCCCCc1cc(O)c2c(c1)OC(C)(C)[C@@H]1CCC(C)=C[C@@H]21 [Δ^9-THC, Δ^9-tetrahydrocannabinol] | – | not detected
